How the values were obtained:
[1] = test system: Dd2 (CQ^R) P. falciparum strain; experiment: In vitro fluorescence (Sybr Green I) growth inhibition assay, Dd2 strain; format: cell-based; conditions: Plasmodium falciparum, DD2; Table 13; growth inhibition; read-out: IC50 (nM) Dd2 (CQ^R)
Description: One exemplary method for measuring inhibitory effects of RCQ compound in vitro has been reported by Smilkstein et al. (Antimicrob. Agents Chemother., 48(5):1803-1806, 2004). This method employs fluorescent detection of the level of parasitemia in cultured red blood cells and can be automated for high-throughput screening of antimalarial RCQs. This exemplary method allows the inhibitory agent (such as a RCQ) to be in contact with the parasite for an entire developmental cycle without purine starvation, which is in contrast to the traditional ^3H-hypoxanthine method (Desjardins et al., Antimicrob. Agents Chemother., 16(6):710-718, 1979). Briefly, to perform the Smilkstein et al. method, an initial parasitemia of approximately 0.2% is attained by adding uninfected red blood cells (RBCs) to a stock culture of Plasmodium sp.-infected RBCs. […] After a period of incubation (such as about 72 hours), a sufficient amount (e.g., 100 μL) of a fluorescent DNA binding dye-detergent mixture (e.g., Sybr Green I dye-detergent mixture) to lyse cells and bind to DNA is added to the reactions. Because uninfected RBCs have no DNA, only parasite DNA (in infected RBCs) is available for binding to the fluorescent dye (e.g., Sybr Green I). Samples are then incubated in the dark for a period of time (e.g., one hour), followed by measurement of levels of fluorescence. For Sybr Green I, excitation and emission wavelength are 485 and 530 nm, respectively. Fluorescence readings, which represent the amount of parasite DNA in the sample, can be plotted against the Log [drug] and fit to a curve by nonlinear regression to obtain the IC50 value for the tested compound.
An in vitro fluorescence assay for determining IC50 of antimalarial drugs was performed as previously described by Smilkstein et al. (Antimicrob. Agents Chemother., 48(5):1803-1806, 2004). This relatively low-cost procedure can be automated for high-throughput screening of the antimalarial activities of RCQs described herein. Advantageous, this method also allows the tested agent (e.g, a RCQ) to be in contact with the parasite for an entire developmental cycle without purine starvation (which occurs with the commonly used ^3H-hypoxanthine method; see, e.g., Desjardins et al., Antimicrob. Agents Chemother., 16, (6):[…], 1979).
Briefly, an initial parasitemia of approximately 0.2% was attained by addition of uninfected red blood cells to a stock culture of cells infected with Dd2 (CQ^R) or D6 (CQ^S) P. falciparum strains. A 10 mM RCQ_02 solution (in DMSO) was prepared. RCQ_02 (at a final concentration from 10^−11 to 10^−4 M) and infected red blood cells (at a final concentration of 2% (v/v)) were mixed in 100 μL samples in individual wells of a 96-well plate. Each sample was prepared in triplicate. A triplicate set of reactions containing CQ (instead of RCQ_02) was included as a control. After a 72 hour incubation period, Sybr Green I dye-detergent mixture (100 μL) was added to each reaction. The samples were further incubated for an hour in the dark, and then placed in a 96-well fluorescence plate reader (Gemini-EM, […]) and analyzed with excitation and emission wavelength bands at 485 and 530 nm, respectively. Fluorescence readings were plotted against the Log [drug], and curve fitting performed by nonlinear regression to find the IC50 value.

[2] = test system: mitogen-induced murine spleen lymphocytes; format: cell-based; conditions: mouse spleen lymphocytes
Description: Mouse spleen lymphocytes were isolated from C57B1/6J mice by teasing tissues on a metallic sieve screen. […] Two hundred (200) μl isolated cells were then seeded in separate wells of a 96-well flat-bottom tissue culture plate at a density of 2×10^5 cells per well. […] After 72 hours incubation in a humidified atmosphere at 37° C. and 5% CO2, a solution of resazurin PBS was added to a final concentration 10 μM, and the plates were returned to the incubator for another 24 hours. Resazurin is a substrate which changes color in response to metabolic activity (such as, living cells). […] LC50 values were determined from plots of florescence versus drug concentration using non-linear regression by Prism software.

CN(CCCNc1ccnc2cc(Cl)ccc12)CCCN1c2ccccc2CCc2ccccc21 [RCQ_02, N′-(7-Chloro-quinolin-4-yl)-N-[3-(10,11-dihydro-dibenzo[b,f]azepin-5-yl)-propyl]-N-methyl-propane-1,3-diamine]
IC50 [1]: 5.3 nM
Cytotoxicity ([2]; LC50, 72 hours + 24 hours resazurin): 700 nM
cytotoxicity values ([2]; Table 14): 700 nM

Source: US9493420B2, “Quinoline derivatives and uses thereof” (Portland State University, priority 2005, dated 2016)
